Measured values published in US10603298B2, “Succinate dehydrogenase inhibitors (SDHi's)” (Medical Research Council, priority 2014, dated 2020).

Tests used:
[1] = test system: adult primary rat cardiomyocytes; test: Mitochondrial membrane potential (TMRM) in primary cardiomyocytes during in situ IR; type: cell-based; settings: 4 mM in ischaemic buffer
Procedure: FIG. 15: Tracking mitochondrial membrane potential in primary cardiomyocytes during in situ IR. Primary rat cardiomyocytes were subjected to 40 min ischaemia and reoxygenation and mitochondrial membrane potential was tracked throughout the experiment by measurement of tetramethylrhoadmine (TMRM) fluorescence. […] Average traces from at least three replicate experiments are shown. (a) TMRM signal throughout the entire experiment.
Male Sprague-Dawley rats (300-370 g) were terminally anaesthetised via IP injections of 200 mg/kg sodium pentobarbitone and 330 U/kg heparin. Hearts were excised and retrograde perfused on a Langendorff-perfusion system with 13 mL/min oxygenated KH buffer at 37° C. […]
Cells were imaged within 36 hours of plating. […] Simulated ischaemia was achieved by replacing the buffer with a pre-gassed, hypoxic recording buffer simulating ischaemia (as above but lacking glucose and containing 10 mM sodium lactate, 14.8 mM KCl; pH 6.4) and by covering the heated stage with a transparent, gas-impermeant lid, forming a small chamber into which argon was forced to maintain hypoxia. pO2 was routinely measured as <2.0 mm Hg during simulated ischaemia. […]
Mitochondrial membrane potential was measured using tetramethylrhodamine, methyl ester (TMRM, Life Technologies) in dequench mode. […] TMRM fluorescence was excited at 543 nm and emission was collected using a LP 560 filter.

[2] = test system: mouse heart IR injury (myocardial infarction); test: In vivo mouse cardiac IR injury (LAD ligation), infarct size by triphenyltetrazolium chloride staining; settings: i.v. infusion 4 mg/kg/min prior to and throughout ischaemia
Procedure: For the in vivo heart IR model an open-chest, in situ heart model was used^31,32. Male mice (8-10 weeks; Charles River Laboratories, UK) were anaesthetised with sodium pentobarbital (70 mg/kg intraperitoneally (i.p.)), intubated endotracheally and ventilated with 3 cm H2O positive-end expiratory pressure. Adequacy of anaesthesia was monitored using corneal and withdrawal reflexes. Ventilation frequency was kept at 110 breaths per minute with tidal volume between 125-150 μL. A thoracotomy was performed and the heart exposed by stripping the pericardium. A prominent branch of the left anterior descending coronary artery (LAD) was surrounded by a 7-0 Prolene suture that was then passed through a small plastic tube. Ischaemia was induced by tightening the tubing against the heart surface. To assess metabolites during IR in vivo, mice were divided into three groups: 30 min ischaemia, 30 min ischaemia plus 5 min reperfusion and 30 min sham-operation in which the suture was placed but the LAD was not occluded. At the end of each protocol tissue was removed from the at risk and peripheral areas of the heart, selected visually by comparing white versus red tissue, and snap-frozen in liquid nitrogen. […] Infarct size was assessed after 30 min of ischaemia followed by 120 min reperfusion using 2% triphenyltetrazolium chloride staining and is expressed as a percentage of the risk zone^33. […]

For COC(=O)CC(=O)OC [dimethyl malonate], the “rate of mitochondrial polarisation upon reperfusion” value [1] was “diminished the rate of mitochondrial polarisation upon reperfusion” and the “protection against cardiac IR injury (infarct size)” value [2] was “protective”.
